Data as given in US20240132457A1, “3-(2-(BENZO[D]THIAZOL-2-YL)-2-(PHENYLSUFONAMIDO)ETHYL)BENZIMIDAMIDE DERIVATIVES AND RELATED COMPOUNDS AS TMPRSS2 INHIBITORS FOR THE TREATMENT OF VIRAL INFECTIONS” (INTEGERBIO, INC., priority 2020, published 2024).

Key:
Format in all cases: biochemical
[1] = biological target: T1, Kallikrein 13 (Homo sapiens, UniProt Q9UKR3); assay: Non-TMPRSS2 protease panel: Kallikrein 13; details: 10-dose, 3-fold from 10 μM
T1 sequence (Q9UKR3 17-277): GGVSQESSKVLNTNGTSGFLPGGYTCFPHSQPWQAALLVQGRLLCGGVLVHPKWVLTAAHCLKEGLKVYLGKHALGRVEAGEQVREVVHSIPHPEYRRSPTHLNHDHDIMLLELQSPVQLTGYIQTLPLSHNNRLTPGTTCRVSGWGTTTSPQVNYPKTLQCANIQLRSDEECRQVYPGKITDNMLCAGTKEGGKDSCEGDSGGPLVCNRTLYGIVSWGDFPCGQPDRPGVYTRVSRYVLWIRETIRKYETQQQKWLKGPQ
Description: (§1) Biochemical activity of compound 1 (racemic mixture, batch 1), compound 3 (racemic), compound 11, and compound 2 (enantiomer 1, batch 1) in proteases indicated in Table 21, Table 22, Table 23, and Table 24, respectively, were measured by testing the compounds in a 10-dose IC50 with a 3-fold series dilution starting at 10 μM against the proteases. The protease activities were monitored as a time-course measurement of the increase in fluorescence signal from fluorescently-labeled peptide substrate, and initial linear portion of slope (signal/min) was analyzed. The curve fits were performed when the activities at the highest concentration of compounds were less than 65%.

[2] = biological target: T2, MMP 1 (Homo sapiens, UniProt P03956); assay: Non-TMPRSS2 protease panel: MMP 1; details: 10-dose, 3-fold from 10 μM
T2 sequence (P03956 100-469): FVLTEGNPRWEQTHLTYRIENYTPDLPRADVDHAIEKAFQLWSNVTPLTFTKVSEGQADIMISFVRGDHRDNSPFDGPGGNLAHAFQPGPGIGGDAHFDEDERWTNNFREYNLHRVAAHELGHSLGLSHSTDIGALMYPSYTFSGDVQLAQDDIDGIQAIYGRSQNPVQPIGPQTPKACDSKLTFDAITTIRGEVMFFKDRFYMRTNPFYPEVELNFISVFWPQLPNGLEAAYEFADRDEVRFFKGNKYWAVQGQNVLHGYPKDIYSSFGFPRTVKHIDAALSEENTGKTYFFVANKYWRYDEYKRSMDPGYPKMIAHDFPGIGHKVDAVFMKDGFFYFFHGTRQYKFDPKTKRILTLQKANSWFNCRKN
Description: as §1

[3] = biological target: Tryptase b2 (Homo sapiens, UniProt P20231); assay: Non-TMPRSS2 protease panel: Tryptase b2; details: 10-dose, 3-fold from 10 μM
Description: as §1

[4] = biological target: T3, FXa (Homo sapiens, UniProt P00742); assay: Non-TMPRSS2 protease panel: FXa; details: 10-dose, 3-fold from 10 μM
T3 construct: consisting of FXa, Kallikrein 1, MMP 1
Description: as §1

[5] = biological target: T4, MMP 7 (Homo sapiens, UniProt P09237); assay: Non-TMPRSS2 protease panel: MMP 7; details: 10-dose, 3-fold from 10 μM
T4 sequence (P09237 95-267): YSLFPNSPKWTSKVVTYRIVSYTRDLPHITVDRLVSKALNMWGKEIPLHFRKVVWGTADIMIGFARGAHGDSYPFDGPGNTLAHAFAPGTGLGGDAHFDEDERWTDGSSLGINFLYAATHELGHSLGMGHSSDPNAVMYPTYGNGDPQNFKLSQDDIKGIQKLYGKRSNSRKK
Description: as §1

[6] = biological target: T5, PLpro (Severe acute respiratory syndrome coronavirus 2, UniProt P0DTD1); assay: Non-TMPRSS2 protease panel: PLpro; details: 10-dose, 3-fold from 10 μM
T5 construct: Plasma Kallikrein, Plasmin, Plpro, TACE
Description: as §1

[7] = biological target: T6, Human TMPRSS2-(AA 106-492) (Homo sapiens, UniProt O15393); assay: TMPRSS2 Assay 2 (Example 42), 384-well primary assay; details: TMPRSS2 20 nM, substrate 40 μM, 150 min at room temperature
T6 construct: Human TMPRSS2-(AA 106-492)-; purchased CusaBio CSB-YP023924HU; host or cells: yeast
Description: The concentration-response testing of compounds was in primary, readout counter as 11-point compound dilution series in 384-well assay plate format in triplicates (n=3). The compound dilutions was prepared in an intermediate plate (spot volume=150 nL), and then the assay reagents were prepared. After preparing the intermediate plates containing the assay reagents for the transfer into the assay plate using the Selma 384/25 μl pipettor, the assay reagents were transferred into the assay plate.
The resulting plate was centrifuged at g=290 for 30 s, and then the plate was incubated at room temperature for 150 minutes. 10 μl 2.5× of stop reagent (50 mM acetic acid) (Selma) was added, and then the plate was read on Safire e.
The materials, reagents, and equipment used for the assay is described in Table 3, Table 4, Table 5, and Table 6.
For the primary assay, the assay buffer (50 mM Tris-HCL, 150 mM NaCl, 0.01% Tween®20, pH8.0) was prepared using the stocks as described in Table 7.
The enzyme dilution was prepared as described in Table 8.
The final assay concentration was referred to 15 μl assay volume. Using a “greiner-dilution” as intermediate plate, the according wells were filled ([…]). The volume was adjusted using another plate type. Substrate dilution was prepared as described in Table 9.
The final assay concentration was referred to 15 μl assay volume. The DMSO concentration of the substrate working dilution was 1.2%. Using a “greiner-dilution” as intermediate plate, the according wells were filled (23 μl). Using another plate type, the volume was adjusted.
The compounds were dissolved in DM50. 150 nl of the compound were transferred into the assay plate prior to addition of the assay components (final assay volume of 15 μl).
The final concentration of the tool compound (low control) in the assay (assay volume l) was 0.8 μM. For the High control 5 μl/well […] was filled in column 6. The readout settings are described in Table 14. The readout was performed utilizing Safire^2 Microplate Reader. […]

Sequence of Tryptase b2 (P20231 31-275): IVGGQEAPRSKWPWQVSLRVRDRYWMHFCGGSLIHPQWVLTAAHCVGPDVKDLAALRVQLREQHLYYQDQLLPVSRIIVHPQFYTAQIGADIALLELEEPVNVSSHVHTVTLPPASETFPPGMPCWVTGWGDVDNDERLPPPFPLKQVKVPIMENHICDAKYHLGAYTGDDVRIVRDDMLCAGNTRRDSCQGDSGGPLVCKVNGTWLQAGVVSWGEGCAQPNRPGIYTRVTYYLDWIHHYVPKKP
T6 sequence (O15393 106-492): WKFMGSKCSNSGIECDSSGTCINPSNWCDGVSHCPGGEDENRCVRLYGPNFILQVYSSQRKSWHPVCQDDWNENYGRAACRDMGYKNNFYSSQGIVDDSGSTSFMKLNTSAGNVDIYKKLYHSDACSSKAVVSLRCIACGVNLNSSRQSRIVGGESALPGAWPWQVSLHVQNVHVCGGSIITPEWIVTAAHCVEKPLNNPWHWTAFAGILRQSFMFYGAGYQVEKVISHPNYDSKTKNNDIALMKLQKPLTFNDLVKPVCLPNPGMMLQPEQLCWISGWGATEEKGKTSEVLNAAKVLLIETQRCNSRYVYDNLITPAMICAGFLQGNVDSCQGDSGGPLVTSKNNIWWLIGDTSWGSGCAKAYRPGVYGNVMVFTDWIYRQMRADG
T3 sequence (P00742 235-488 limits assumed): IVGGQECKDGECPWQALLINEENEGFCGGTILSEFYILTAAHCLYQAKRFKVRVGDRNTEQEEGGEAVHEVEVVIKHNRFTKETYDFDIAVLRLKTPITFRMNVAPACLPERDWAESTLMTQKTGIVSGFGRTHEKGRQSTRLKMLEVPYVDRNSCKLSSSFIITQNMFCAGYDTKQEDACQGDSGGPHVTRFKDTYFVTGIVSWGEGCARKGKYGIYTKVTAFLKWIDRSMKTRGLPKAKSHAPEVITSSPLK
T3 sequence (P00742 41-179 partner limits assumed): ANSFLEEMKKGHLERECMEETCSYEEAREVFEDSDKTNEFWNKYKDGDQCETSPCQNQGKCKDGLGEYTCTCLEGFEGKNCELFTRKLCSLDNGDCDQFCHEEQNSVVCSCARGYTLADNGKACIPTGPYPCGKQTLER

SMILES | IC50 [1] | IC50 [2] | IC50 [3] | IC50 ([4]; Factor Xa) | IC50 [5] | IC50 [6] | IC50 [7] | IC50 ([4]; FXa)
COc1ccc2nc(C(Cc3cccc(C(=N)N)c3)NS(=O)(=O)c3ccccc3)sc2c1 (stereo not drawn) [Compound 11, 3-[2-Benzenesulfonamido-2-(6-methoxy-1,3-benzothiazol-2-yl)ethyl]benzene-1-carboximidamide] | > 10 µM | > 10 µM | > 10 µM | > 10 µM | > 10 µM | > 10 µM |  | 
N=C(N)c1cccc(CC(NS(=O)(=O)c2ccccc2)c2nc3ccccc3s2)c1 (racemic) [1 (racemic mixture, batch 1), 3-[2-Benzenesulfonamido-2-(1,3-benzothiazol-2-yl)ethyl]benzene-1-carboximidamide] | > 10 µM | > 10 µM | > 10 µM |  | > 10 µM | > 10 µM | < 30 µM | > 10 µM
N=C(N)c1cccc(C[C@H](NS(=O)(=O)c2ccccc2)c2nnco2)c1 (single isomer, unassigned) [Compound 2 (enantiomer 1, batch 1), 3-[2-Benzenesulfonamido-2-(1,3,4-oxadiazol-2-yl)ethyl]benzene-1-carboximidamide] | > 10 µM | > 10 µM | > 10 µM |  | > 10 µM | > 10 µM | > 30 µM | > 10 µM
N=C(N)c1cccc(CC(NS(=O)(=O)c2cccc(-c3ccc(Cl)cc3Cl)c2)c2nc3ccccc3s2)c1 (racemic) [3 (racemic), 3-[2-(1,3-Benzothiazol-2-yl)-2-{2′,4′-dichloro-[1,1′-biphenyl]-3-sulfonamido}ethyl]benzene-1-carboximidamide] | > 10 µM | > 10 µM | < 10 µM |  | > 10 µM | > 10 µM | > 30 µM | < 10 µM
